# Laboratory results reported in patent US6313180A, “Steroid compounds having contraceptive and anti-osteoporosis activity” (priority 1997, dated 2001).
# Read-outs that look alike come from different tables or passages of the source.
# Tests used:
# [1] = test system: ovariectomised rats; test: Prevention of ovariectomy-induced bone loss in rats (anti-osteoporosis test, pQCT trabecular bone mineral density); format: in vivo, rat (female Wistar); details: Rattus norvegicus, 672 h, read-out: Osteoporosis ED50
# Excerpt: Ovariectomy induces in rats bone loss, which is due to oestrogen deficiency. Administration of oestrogenic compounds prevents this effect. The test is used to evaluate a compound for anti-osteoporotic activity in ovariectomised rats. The effect on bone mass can be evaluated by peripheral Quantitave Computed Tomography (pQCT) measurement of trabecular bone mineral density.
# Mature virgin female Wistar rats preferentially, 225-250 g. Strain: Hsd/Cpd:Wu, SPF-bred by Harlan, CPB, Zeist, The Netherlands.
# On day 1 of the experiment the rats are weighed and distributed over the cages in order of body weight. The rat with the lowest body weight in the first cage and the heaviest rat in the last cage. Treatments are randomized over the rats per block. A block (group of 3+n treatments) consists of 1 Intact placebo rat, 1 OVX placebo rat, 1 OVX reference rat and 1 rat of each n treatments.
# Sham-operation and ovariectomy are performed under ether anaesthesia. After recovery from the anaesthesia, within 24 h, vehicle, reference compound or test compound is administered once or twice daily for 4 weeks.
# Trabecular bone mineral density (mg/cm^3) of the metaphyseal part of the femur was measured with a pQCT (peripheral Quantitative Computed Tomography machine; XCT 960A, Stratec, Birkenfeld, Germany) directly after autopsy on fresh tissue. Two 360° scans, which have, due to the X-ray beam, a standard thickness of 1 mm were taken. The scans have a resolution of 0.148×0.148 mm. One scan was taken at 5.5 mm from the distal end of the femur, where trabecular bone mineral density of the metaphyseal part was measured. The other scan was taken in the diaphysis at 13.5 mm from the distal end, which contains no trabecular bone. In the latter scan cortical bone mineral density and the geometrical parameters, such as cortical thickness, total bone area, outer and inner diameter, were determined. Intra- and inter-assay variation for the measurement of trabecular bone mineral density in the distal femur were about 2-3%. The XCT-960A was calibrated with a standard of hydroxyapatite embedded in acrylic plastic.
# Ovariectomy causes a statistically significant decrease in trabecular bone mineral density (P≤0.05, 2 way ANOVA).
# The active dose (ED50) is the dose where a mean proportional difference in trabecular bone mineral density between 40 and 60% is reached as compared to the sham and ovariectomised group.
# (§1) Several of the compounds according to the Examples I-VI, as well as other compounds according to the invention synthesized in analogous manner, were subjected to the tests described in the Examples VII and VIII. The results are described in the Table, in which the type of A-ring and the substitution at carbon atoms nos. 7, 11, and 17 is indicated. In the columns captioned E and P, the relative binding affinities for the estrogen and progesterone receptors are given; the ED50 results of the AllenDoisy and the McPhail tests have been indicated in μg/kg. In the column captioned "Osteoporosis", the ED50 results of the anti-osteoporosis test are given (dose in μg/kg, day, as described above).
# [2] = Allen Doisy test for estrogenic activity in vivo; details: read-out: AllenDoisy ED50
# [3] = McPhail test for progestagenic activity in vivo; details: read-out: McPhail ED50
# [4] = test system: human progesterone (P) receptor; test: Relative progesterone receptor binding affinity, cytoplasmic receptors of MCF-7 cells; details: relative to (16α)-16-ethyl-21-hydroxy-19-norpregn-4-ene-3,20-dione, 16 h, 4° C
# [5] = molecular target: T1, human estradiol (E) receptor (Homo sapiens, UniProt P03372); format: binding
# T1 construct: present in human breast tumor cells (MCF-7 cells); endogenous in cells; host or cells: MCF-7 human breast tumor cells
# T1 sequence (P03372 1-595): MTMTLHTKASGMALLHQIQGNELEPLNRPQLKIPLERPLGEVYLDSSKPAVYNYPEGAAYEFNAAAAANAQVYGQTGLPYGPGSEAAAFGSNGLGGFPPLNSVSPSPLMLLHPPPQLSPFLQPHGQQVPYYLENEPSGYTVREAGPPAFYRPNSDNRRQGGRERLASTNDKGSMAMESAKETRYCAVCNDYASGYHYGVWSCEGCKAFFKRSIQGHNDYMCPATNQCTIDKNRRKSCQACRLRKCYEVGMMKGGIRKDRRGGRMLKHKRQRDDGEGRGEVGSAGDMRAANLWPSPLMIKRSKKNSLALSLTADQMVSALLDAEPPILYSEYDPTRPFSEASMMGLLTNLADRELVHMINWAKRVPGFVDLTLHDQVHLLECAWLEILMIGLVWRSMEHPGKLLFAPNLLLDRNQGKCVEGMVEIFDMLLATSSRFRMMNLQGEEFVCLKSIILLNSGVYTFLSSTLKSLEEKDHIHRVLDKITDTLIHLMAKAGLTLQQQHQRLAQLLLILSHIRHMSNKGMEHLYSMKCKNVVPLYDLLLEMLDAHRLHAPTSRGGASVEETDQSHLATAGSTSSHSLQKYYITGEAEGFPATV
# Description: The relative estradiol receptor binding affinity was measured in the same manner as described above but using 17βestradiol as a reference.
# as §1
# [6] = oral administration, ovariectomised rats, once or twice daily for 4 weeks, 40-60% proportional difference in trabecular bone mineral density
# [7] = oral administration, estrogenic activity
# [8] = oral administration, progestagenic activity
Structure (SMILES),"ED50 [1, 6]","ED50 [2, 7]","ED50 [3, 8]",Relative binding affinity to the human progesterone (P) receptor [4],ED50 ([1]; po),ED50 ([2]; po),ED50 ([3]; po),Relative binding affinity to the human estradiol (E) receptor [5]
C[C@H]1C[C@@]2(C)[C@@H](C[C@H]3C[C@H](CN=[N+]=[N-])C[C@]32O)[C@@H]2CCC3=CC(=O)CC[C@@H]3[C@H]21 [Code 38322],> 1 mg/kg,> 0.5 mg/kg,0.063 mg/kg,44%,–,–,–,–
CCC[C@H]1C[C@@H]2C[C@H]3[C@@H]4CCC5=CC(=O)CC[C@@H]5[C@H]4CC[C@]3(C)[C@]2(O)C1 [Code 37977],–,–,–,151%,> 1 mg/kg,> 4 mg/kg,0.5 mg/kg,–
C[C@H]1C[C@@H]2C[C@H]3[C@@H]4CCC5=CC(=O)CC[C@@H]5[C@H]4CC[C@]3(C)[C@]2(O)C1 [Code 38541],–,–,–,58%,> 1 mg/kg,> 0.5 mg/kg,0.125 mg/kg,–
C[C@@H]1Cc2cc(O)ccc2[C@H]2CC[C@@]3(C)[C@@H](C[C@H]4CCCC[C@]43O)[C@H]12 [Code 37828],0.5 mg/kg,0.192 mg/kg,–,10%,–,–,–,11%
C[C@]12CC[C@@H]3C4=C(CC[C@H]3[C@@H]1C[C@H]1CCCC[C@]12O)CC(=O)CC4 [Code 37516],> 2 mg/kg,> 4 mg/kg,1 mg/kg,13%,–,–,–,–
CCC[C@H]1C[C@@H]2C[C@H]3[C@@H]4CCC5=CC(=O)CC[C@@H]5[C@H]4[C@@H](CC)C[C@]3(C)[C@]2(O)C1 [Code 38577],0.25 mg/kg,0.192 mg/kg,> 0.5 mg/kg,139%,–,–,–,–
CCC[C@@H]1C[C@@H]2C[C@H]3[C@@H]4CCc5cc(O)ccc5[C@H]4CC[C@]3(C)[C@]2(O)C1 [Code 37968],–,> 1 mg/kg,> 4 mg/kg,6%,–,–,–,1%
CCC[C@@H]1Cc2cc(O)ccc2[C@H]2CC[C@@]3(C)[C@@H](C[C@@H]4C[C@@H](C)C[C@@]43O)[C@H]12 [Code 38513],–,2 mg/kg,> 0.125 mg/kg,–,–,–,–,0.2%
C[C@]12CC[C@H]3[C@@H](CCC4=CC(=O)CC[C@@H]43)[C@@H]1C[C@H]1CCCC[C@]12O [Code 37518],–,–,–,115%,> 2 mg/kg,> 4 mg/kg,0.125 mg/kg,–
"CCC[C@@H]1Cc2cc(O)ccc2[C@H]2CC[C@@]3(C)[C@@H](C[C@H]4C[C@H](C)C[C@]43O)[C@H]12 [Code 38481, (4'S,7-alpha,16-beta, 17-beta)-3',4',5',16-tetrahydro-4'-methyl-7-propyl-17H-cyclopenta[16,17]estra-1,3,5(10)-trien-3,17-diol]",0.125 mg/kg,0.064 mg/kg,> 4 mg/kg,6%,–,–,–,23%
CCC[C@@H]1Cc2cc(O)ccc2[C@H]2CC[C@@]3(C)[C@@H](C[C@H]4C[C@@H](C)C[C@]43O)[C@H]12 [Code 38514],< 0.032 mg/kg,0.024 mg/kg,> 2 mg/kg,4%,–,–,–,11%
CC[C@H]1C[C@@]2(C)[C@@H](C[C@H]3CCCC[C@]32O)[C@@H]2CCc3cc(O)ccc3[C@@H]12 [Code 37862],< 0.016 mg/kg,0.032 mg/kg,–,2%,–,–,–,96%
CCC[C@H]1C[C@H]2C[C@H]3[C@@H]4[C@H](C)Cc5cc(O)ccc5[C@H]4CC[C@]3(C)[C@@]2(O)C1 [Code 38079],–,> 4 mg/kg,–,1%,–,–,–,< 1%
"CCCC[C@@H]1C[C@@H]2C[C@H]3[C@@H]4CCC5=CC(=O)CC[C@@H]5[C@H]4[C@@H](C)C[C@]3(C)[C@]2(O)C1 [Code 38276, (4'R,11-beta,16-beta-17-beta)-4'-butyl-4',5',16,17-tetrahydro-17-hydroxy-11-methyl-3'H-cyclopenta[16,17]estra-4,16-dien-3-one]",> 1 mg/kg,> 0.5 mg/kg,0.125 mg/kg,115%,–,–,–,–
CCC[C@@H]1C[C@@H]2C[C@H]3[C@@H]4CCC5=C(CCC(=O)C5)[C@H]4[C@@H](CC)C[C@]3(C)[C@]2(O)C1 [Code 38151],–,0.125 mg/kg,> 1 mg/kg,8%,–,–,–,–
C[C@]12CC[C@@H]3c4ccc(O)cc4CC[C@H]3[C@@H]1C[C@H]1CCCC[C@]12O [Code 37469],> 4 mg/kg,> 4 mg/kg,> 2 mg/kg,23%,–,–,–,1%
CCC[C@H]1C[C@@H]2C[C@H]3[C@@H]4CCc5cc(O)ccc5[C@H]4CC[C@]3(C)[C@]2(O)C1 [Code 37969],> 1 mg/kg,> 1 mg/kg,4 mg/kg,25%,–,–,–,3%
C[C@H]1C[C@@H]2C[C@H]3[C@@H]4[C@H](C)Cc5cc(O)ccc5[C@H]4CC[C@]3(C)[C@]2(O)C1 [Code 37893],0.5 mg/kg,0.5 mg/kg,> 4 mg/kg,11%,–,–,–,38%
CC[C@H]1C[C@@H]2C[C@H]3[C@@H]4CCC5=CC(=O)CC[C@@H]5[C@H]4[C@@H](CC)C[C@]3(C)[C@]2(O)C1 [Code 38610],0.125 mg/kg,0.032 mg/kg,> 0.125 mg/kg,0.3%,–,–,–,–
CCC[C@@H]1CC2=CC(=O)CC[C@@H]2[C@H]2CC[C@@]3(C)[C@@H](C[C@H]4C[C@@H](C)C[C@]43O)[C@H]12 [Code 38550],0.125 mg/kg,0.125 mg/kg,> 0.125 mg/kg,36%,–,–,–,–
CC[C@H]1C[C@@]2(C)[C@@H](C[C@H]3CCCC[C@]32O)[C@@H]2CCC3=CC(=O)CC[C@@H]3[C@@H]12 [Code 37943],–,–,–,96%,0.4 mg/kg,0.192 mg/kg,1 mg/kg,–
C[C@H]1C[C@@H]2C[C@H]3[C@H]4[C@H](CC[C@]3(C)[C@]2(O)C1)[C@H]1CCC(=O)C=C1C[C@H]4C [Code 38049],–,–,–,250%,> 1 mg/kg,> 2 mg/kg,1 mg/kg,–
